pIC50: −log10 of the molar value.
What was measured:
CH27 = test: trypan blue exclusion assay, CH27 cells; format: cell-based; conditions: CH27 human lung squamous carcinoma
Description: CH27 cells (Human lung squamous carcinoma) were grown in monolayer culture in Dulbecco's modified Eagle's medium (DMEM; Life Technologies, Rockville, Md., USA) containing 5% FBS (HyClone, Logan, Utah, USA), 100 U/ml penicillin, […] streptomycin (Gibco BRL, Rockville, Md., USA) and 2 mM glutamine (Merck, Darmstadt, Germany).
(§1) Cell viability was also determined by trypan-blue exclusion assay. Cells were seeded in 6-well plates (2×10^4/well) for trypan blue exclusion assay, and incubated for 24 hours at 37° C. Culture medium containing test compound or DMSO (0.006%) was added to each well, and cells were incubated at 37° C. At indicated time points (0, 24, 48, 72 and 96 hr), cells were suspended with 0.05% trypsin-EDTA, and stained with trypan-blue dye (0.4%) (Sigma). The cell viability was evaluated by the percentage of death relative to the total cell, and cell growth curve was determined by number of live cells relative to the total number of cells.
(§2) The anti-proliferation effects of Compounds 17-31 on M21, CH27, H460, Hep3B and HSC-3 cells were evaluated by the trypan blue exclusion assay.

C6 glioma cells [1] = test: cell cycle assay by flow cytometry with propidium iodide; format: cell-based, rat; conditions: 60 nM
Description: To analyze cellular DNA content by flow cytometry, 3×10^5 cells were seeded in 10 cm dish and incubated for 24 hours at 37° C. […] At indicated time points (0, 6, 12, 24 and 48 hr), over 10^6 cells were suspended with 0.05% trypsin-EDTA, and fixed in 70% ethanol over 1 hour at −20° C. After washed by phosphate-buffered saline (PBS) twice, cells were then suspended with 1 ml propidium iodide/Triton-X 100 staining solution (20 μg/ml PI, 0.1% Triton-X 100 and 0.2 mg/ml ribonuclease A (RNase A, Sigma) in PBS) and incubated for 30 minutes at room temperature in the dark. After filtered by 35 μm nylon mesh (Falcon, 352235), the DNA content was then analyzed by flow cytometry (FACS can, BD Bioscience). The cell-cycle distribution (subG1, G1, S, G2/M, and >4N DNA content) of ten thousand cells was analyzed by WinMDI software.
To investigate the cell cycle distribution of MJ-66-treated glioma cell, C6 glioma cells were treated with 60 nM MJ-66 for 0, 6, 12, 24, 36 and 48 hours, and the cell cycle distributions of the percentages of cells at subG1, G1, S and G2/M phases and DNA content of cells were monitored by flow cytometry with propidium iodide staining.

U87 glioma cells = test: trypan blue exclusion cell death assay, U87 glioma cells; format: cell-based, human; conditions: 60 nM, at the 48th hour, p<0.05 versus control
Description: as §1
(§3) To investigate the glioma cell death induced by MJ-66, cell viability was assessed by trypan blue exclusion assay. C6 and U87 glioma cells treated with MJ-66 (30, 60, 90 nM) or DMSO (0.009%) for 0, 24, 48, 72 and 96 hours (hr) were observed under bright field microscope (FIG. 4A). The percentages of cell death and cell growth curve were determined by trypan blue assay followed by cell counting (mean±SEM, n=3). Relative to total cell number, trypan blue positive cells were defined as dead cells.

Hep3B = test: trypan blue exclusion assay, Hep3B cells; format: cell-based; conditions: Hep3B human hepatoma
Description: Hep3B (human hepatocellular carcinoma) and H460 (lung non-small carcinoma) cells were grown in monolayer culture in Dulbecco's modified Eagle's medium (DMEM) (Life Technologies, Rockville, Md., USA) containing 5% fetal bovine serum (HyClone, Logan, Utah, USA), 100 U/ml penicillin and 100 μg/ml streptomycin (Gibco BRL, Rockville, Md., USA) and 2 mM glutamine (Merck, Darmstadt, Germany).
as §1, §2

C6 glioma cells [2] = test: trypan blue exclusion cell death assay, C6 glioma cells; format: cell-based, rat; conditions: 60 nM, at the 72nd hour, p<0.05 versus control
Description: as §1, §3

[3] = system: M21, CH27, H460, Hep3B and HSC-3 cells; test: trypan blue exclusion assay, cancer cell panel (summary); format: cell-based; conditions: summary of Table 2
Description: as §1, §2

For `O=c1[nH]c(-c2cccc3ccccc23)nc2ccc(N3CCCC3)cc12` [Compound 23, 6-(Pyrrolidin-1-yl)-2-(naphthalen-1-yl)quinazolin-4-one], the pIC50 (CH27) was 7.28, the G2/M cell population (C6 glioma cells [1]; after 6 and 12 hours) was “significantly increased” and the “sub G1 and >4N DNA content cell population” value (C6 glioma cells [1]; after 24, 36 and 48 hours, time-dependent) was “increased”. For the same compound, the “percentage of dead cells, U87” value (U87 glioma cells) was “significantly induced”, the pIC50 (Hep3B) was 5.87 and the “percentage of dead cells, C6” value (C6 glioma cells [2]) was “significantly induced”. The “cytotoxic effects toward cancer cells” value [3] was “exhibited cytotoxic effects”.

— patent US8710064B2, “2-aryl-4-quinazolinones and their pharmaceutical compositions” (China Medical University, priority 2011, dated 2014)
